# Assay results as given in PubChem BioAssay AID1259411 (Chemical Carcinogenesis Research Information System (CCRIS), 2018).
# The source made the active and inactive calls. How the calls were made is not given here.
# Tested on: rodent carcinogenicity bioassays, tumor incidence
# Assay: CCRIS carcinogenicity studies
# In short: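 NCI-built, expert-reviewed records of carcinogenicity and related test outcomes (mutagenicity, tumor promotion/inhibition) compiled from published and report sources, historical span 1985-2011, not updated.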
structure (smiles),measurement,setting,value
CCC[CH2][Sn]([CH2]CCC)([O]C(C)=O)[O]C(C)=O,carcinogen call,"Species: MOUSE, Strain/Sex: B6C3F1/FEMALE, Route: ORAL, Dose: 0, 76, 152 PPM IN DIET, TWA, Dose: 0, 76, 152 PPM IN DIET, TWA",inactive; negative
same,carcinogen call,"Species: MOUSE, Strain/Sex: B6C3F1/MALE, Route: ORAL, Dose: 0, 76, 152 PPM IN DIET, TWA, Dose: 0, 76, 152 PPM IN DIET, TWA",inactive; negative
same,carcinogen call,"Species: RAT, Strain/Sex: F344/MALE, Route: ORAL, Dose: 0, 66.5, 133 PPM IN DIET, TWA, Dose: 0, 66.5, 133 PPM IN DIET, TWA",inactive; negative
COC(=O)Nc1nc2ccccc2[nH]1,carcinogen call,"Species: Mouse, Strain/Sex: CD-1/Female (80/sex/dose), Route: Oral, Dose: 0, 500, 1500, 7500 ppm in feed for 2 yr, Dose: 0, 500, 1500, 7500 ppm in feed for 2 yr, Tumor Site: Type of Lesion: Liver: Hepatocellular adenoma (0/68, 5/62, 5/66, 3/71), Hepatocellular carcinoma (2/68, 4/62, 15/66, 12/71), Combined (2, Tumor Site: Type of Lesion: Liver: Hepatocellular adenoma (0/68, 5/62, 5/66, 3/71), Hepatocellular carcinoma (2/68, 4/62, 15/66, 12/71), Combined (2",active; positive: purity 99.3%
same,carcinogen call,"Species: Mouse, Strain/Sex: CD-1/Male (80/sex/dose); Route: Oral; Dose: 0; 500; 1500; 7500 ppm in feed for 2 yr except for highest dose where animals terminated at week 73 with 29% survival); Dose: 0; 500; 1500; 7500 ppm in feed for 2 yr except for highest dose where animals terminated at week 73 with 29% survival)",inactive; negative: purity 99.3%
CCOCCc1c(-c2ccccc2)nc(N)n2ncnc12,carcinogen call,"Species: RAT, Strain/Sex: STRAIN-CD/FEMALE, Route: ORAL, Dose: 0, 50, 150, 450 MG/KG/D IN DIET FOR 97 WK (STUDY DURATION: 105 WK), Dose: 0, 50, 150, 450 MG/KG/D IN DIET FOR 97 WK (STUDY DURATION: 105 WK), Tumor Site: Type of Lesion: LIVER: ADENOMA OR CARCINOMA, MAMMARY GLAND: ADENOMA OR CARCINOMA, THYROID GLAND: ADENOMA, Tumor Site: Type of Lesion: LIVER: ADENOMA OR CARCINOMA, MAMMARY GLAND: ADENOMA OR CARCINOMA, THYROID GLAND: ADENOMA",active; positive
same,carcinogen call,"Species: RAT, Strain/Sex: STRAIN-CD/MALE, Route: ORAL, Dose: 0, 50, 150, 450 MG/KG/D IN DIET FOR 97 WK (STUDY DURATION: 105 WK), Dose: 0, 50, 150, 450 MG/KG/D IN DIET FOR 97 WK (STUDY DURATION: 105 WK), Tumor Site: Type of Lesion: LIVER: ADENOMA OR CARCINOMA, THYROID GLAND: ADENOMA OR CARCINOMA",active; positive
C[C@]12CC[C@H](O)CC1=CC[C@@H]1[C@@H]2CC[C@]2(C)C(=O)CC[C@@H]12,carcinogen call,"Species: FISH, Strain/Sex: RAINBOW TROUT/MALE, FEMALE, Route: ORAL, Dose: 0, 55, 111, 222, 444, 888 PPM IN DIET 1/D 5 D/WK FOR 42 WK (STUDY DURATION: 42 WK), Dose: 0, 55, 111, 222, 444, 888 PPM IN DIET 1/D 5 D/WK FOR 42 WK (STUDY DURATION: 42 WK), Tumor Site: Type of Lesion: LIVER: TUMOR",active; positive
same,carcinogen call,"Species: FISH, Strain/Sex: RAINBOW TROUT/MALE,FEMALE, Route: ORAL, Dose: 0, 55, 111, 222, 444, 888 PPM IN DIET FOR 7 MO (STUDY DURATION: 10 MO), Dose: 0, 55, 111, 222, 444, 888 PPM IN DIET FOR 7 MO (STUDY DURATION: 10 MO), Tumor Site: Type of Lesion: LIVER: TUMOR",active; positive
same,carcinogen call,"Species: RAT, Strain/Sex: F344/MALE, Route: ORAL, Dose: 0, 0.45% (WEIGHT/WEIGHT) IN SEMIPURIFIED DIET OIL STRIPPED OF VITAMIN E FOR STUDY DURATION, (STUDY DURATION: 84 WK), Dose: 0, 0.45% (WEIGHT/WEIGHT) IN SEMIPURIFIED DIET OIL STRIPPED OF VITAMIN E FOR STUDY DURATION, (STUDY DURATION: 84 WK), Tumor Site: Type of Lesion: LIVER: HEPATOCELLULAR CARCINOMA",active; positive
same,carcinogen call,"Species: RAT, Strain/Sex: F344/MALE, Route: ORAL, Dose: 0, 0.5, 1% IN DIET FOR 78 WK (STUDY DURATION: 78 WK), Dose: 0, 0.5, 1% IN DIET FOR 78 WK (STUDY DURATION: 78 WK), Tumor Site: Type of Lesion: LIVER: NEOPLASM",active; positive
[Cl][Hg][Cl],carcinogen call,"Species: MOUSE, Strain/Sex: B6C3F1/FEMALE, Route: GAVAGE, Dose: 0, 5, 10 MG/KG IN DEIONIZED WATER 5 D/WK FOR 103-104 WK (STUDY DURATION: 104 WK), Dose: 0, 5, 10 MG/KG IN DEIONIZED WATER 5 D/WK FOR 103-104 WK (STUDY DURATION: 104 WK)",inactive; negative
same,carcinogen call,"Species: MOUSE, Strain/Sex: B6C3F1/MALE, Route: GAVAGE, Dose: 0, 5, 10 MG/KG IN DEIONIZED WATER 5 D/WK FOR 103-104 WK (STUDY DURATION: 104 WK), Dose: 0, 5, 10 MG/KG IN DEIONIZED WATER 5 D/WK FOR 103-104 WK (STUDY DURATION: 104 WK), Tumor Site: Type of Lesion: KIDNEY (RENAL TUBLE): ADENOMA, ADENOCARCINOMA",equivocal
same,carcinogen call,"Species: MOUSE, Strain/Sex: SWISS/FEMALE, Route: ORAL, Dose: 0, 5 PPM (HG) IN DRINKING WATER FOR DURATION OF STUDY (STUDY DURATION: LIFE SPAN)",inactive; negative
same,carcinogen call,"Species: MOUSE, Strain/Sex: SWISS/MALE, Route: ORAL, Dose: 0, 5 PPM (HG) IN DRINKING WATER FOR DURATION OF STUDY (STUDY DURATION: LIFE SPAN)",inactive; negative
same,carcinogen call,"Species: RAT, Strain/Sex: F344/FEMALE, Route: GAVAGE, Dose: 0, 2.5, 5 MG/KG IN DEIONIZED WATER 5 D/WK FOR 103-104 WK (STUDY DURATION: 104 WK), Dose: 0, 2.5, 5 MG/KG IN DEIONIZED WATER 5 D/WK FOR 103-104 WK (STUDY DURATION: 104 WK), Tumor Site: Type of Lesion: FORESTOMACH: SQUAMOUS CELL PAPILLOMA",equivocal
same,carcinogen call,"Species: RAT, Strain/Sex: F344/MALE, Route: GAVAGE, Dose: 0, 2.5, 5 MG/KG IN DEIONIZED WATER 5 D/WK FOR 103-104 WK (STUDY DURATION: 104 WK), Dose: 0, 2.5, 5 MG/KG IN DEIONIZED WATER 5 D/WK FOR 103-104 WK (STUDY DURATION: 104 WK), Tumor Site: Type of Lesion: THYROID GLAND: FOLLICULAR CELL CARCINOMA, FOLLICULAR CELL CARCINOMA OR ADENOMA, FORESTOMACH: SQUAMOUS CELL PAPILLOMA",active; positive
CC(=O)Nc1ccc(CC(=O)O)cc1,carcinogen call,"Species: MOUSE, Strain/Sex: B6C3F1/FEMALE, Route: ORAL, Dose: 0;300, 1000, 3000 MG/KG IN DIET FOR 78 WK (STUDY DURATION: 78 WK), Dose: 0;300, 1000, 3000 MG/KG IN DIET FOR 78 WK (STUDY DURATION: 78 WK)",inactive; negative
same,carcinogen call,"Species: MOUSE, Strain/Sex: B6C3F1/MALE, Route: ORAL, Dose: 0, 300, 1000, 3000 MG/KG IN DIET FOR 78 WK (STUDY DURATION: 78 WK), Dose: 0, 300, 1000, 3000 MG/KG IN DIET FOR 78 WK (STUDY DURATION: 78 WK)",inactive; negative
same,carcinogen call,"Species: RAT, Strain/Sex: F344/FEMALE, Route: ORAL, Dose: 0, 300, 1000, 3000 MG/KG/D IN DIET FOR 104 WK (STUDY DURATION: 104 WK), Dose: 0, 300, 1000, 3000 MG/KG/D IN DIET FOR 104 WK (STUDY DURATION: 104 WK)",inactive; negative
same,carcinogen call,"Species: RAT, Strain/Sex: F344/MALE, Route: ORAL, Dose: 0, 300, 1000, 3000 MG/KG/D IN DIET FOR 104 WK (STUDY DURATION: 104 WK), Dose: 0, 300, 1000, 3000 MG/KG/D IN DIET FOR 104 WK (STUDY DURATION: 104 WK)",inactive; negative
C/C=C/c1ccc2c(c1)OCO2,carcinogen call,"Species: MOUSE, Strain/Sex: B6C3F1/MALE,FEMALE, Route: GAVAGE/ORAL, Dose: 215 MG/KG FROM D 6= 28 OF LIFE THEN 517 MG/KG IN DIET, Tumor Site: Type of Lesion: LIVER",active; positive
same,carcinogen call,"Species: RAT, Route: ORAL, Dose: 1000, 2500, 5000, 10000 MG/KG IN DIET FOR 2 YR, Dose: 1000, 2500, 5000, 10000 MG/KG IN DIET FOR 2 YR, Tumor Site: Type of Lesion: LIVER: HEPATOCELLULAR ADENOMA, CARCINOMA",active; positive
C/C=C/c1ccc(O)c(OC)c1,carcinogen call,"Species: Mouse, Strain/Sex: B6C3F1 /Female (50/Group), Route: Oral, Dose: 0, 75, 150, 300 mg/kg in corn oil, by gavage, 5 d/wk for 2 yr, Dose: 0, 75, 150, 300 mg/kg in corn oil, by gavage, 5 d/wk for 2 yr",inactive; negative. (authors describe as equivocal evidence based on incidence of histiocy
same,carcinogen call,"Species: Mouse, Strain/Sex: B6C3F1 /Male (50/Group), Route: Oral, Dose: 0, 75, 150, 300 mg/kg in corn oil, by gavage, 5 d/wk for 2 yr, Dose: 0, 75, 150, 300 mg/kg in corn oil, by gavage, 5 d/wk for 2 yr, Tumor Site: Type of Lesion: Liver: hepatocellular adenoma (24/50, 35/50, 37/50, 33/50), hepatocellular carcinoma (8/50, 18/50, 19/50, 18/50), hepato, Tumor Site: Type of Lesion: Liver: hepatocellular adenoma (24/50, 35/50, 37/50, 33/50), hepatocellular carcinoma (8/50, 18/50, 19/50, 18/50), hepato",active; positive. (authors describe as clear evidence)
same,carcinogen call,"Species: Rat, Strain/Sex: F344/N / Female (50/Group), Route: Oral, Dose: 0, 75, 150, 300 mg/kg in corn oil, by gavage, 5 d/wk for 2 yr, Dose: 0, 75, 150, 300 mg/kg in corn oil, by gavage, 5 d/wk for 2 yr",inactive; negative
same,carcinogen call,"Species: Rat, Strain/Sex: F344/N / Male (50/Group), Route: Oral, Dose: 0, 75, 150, 300 mg/kg in corn oil, by gavage, 5 d/wk for 2 yr, Dose: 0, 75, 150, 300 mg/kg in corn oil, by gavage, 5 d/wk for 2 yr","inactive; negative. (authors describe as equivocal evidence based on incidence of thymoma,"
